Results from US20260115253A1, “VISCOUS COMPOSITION FOR TREATING ISCHEMIA” (National Cheng Kung University, priority 2017, published 2026).

System: diabetic mice with lower limb ischemia
Assay: Diabetic lower limb ischemia mouse model, blood flow by laser Doppler flowmetry
Format: in vivo
Conditions: 3.125 ng/g of VEGF in composition DIV
Protocol: C57BL/6 male mice were sourced from the National Cheng Kung University (NCKU) Laboratory Animal Center or BioLASCO Taiwan Co., Ltd. They were housed in the animal facility of the NCKU Institute of Biotechnology for at least one week in order for them to adapt to the environment before experiments were performed.
Since low blood sugar levels in mice would interfere with the results, mice with blood sugar levels within the range of 400 mg/dl to 550 mg/dl were used for the experiments, and minute amount of insulin might be applied to mice to avoid life-threatening high blood sugar levels. In order to avoid the possibility of self-regenerative neovascularization, the femoral artery and its peripheral blood vessels in the lower limbs of the mice were severed. The model minimized the possibility of blood vessel regeneration, which allowed a more accurate assessment of the angiogenic ability of testing drugs. […]
At day 0, 1, 2, 3, 4, 5, 6, 7, 14, 21 and 28 post-surgery, the apparent appearance and blood flow of the lower limb in the mice were evaluated using the score system shown in Table 1 and laser Doppler flowmetry, respectively. ROI was calculated as the ratio of the blood flow signal of the left lower limb to that of the untreated right lower limb post-surgery, and the ratio in percentage was normalized based on the blood flow signal taken before the operation.

**Q.** Which “Blood flow compared with the control group” value does the source give for VEGF here?
**A.** Its value is “significantly increased the blood flow at day 14 and then on post surgery”.
